“Also recorded” adds a separate entry of the source. Where two headings read alike, the source gives them in different places. A value given as a limit tells only on which side of the number the result lay.

Series [1] deals with HUVEC. Nature of the series: Inhibitory activity on VEGF-induced in vitro proliferation of HUVEC (MTS). Type of series: cell-based. Conditions: Homo sapiens, 72 h, read-out: EC50, activity on VEGF-induced in vitro proliferation of HUVEC. How it is done: Assays for inhibitory activity on VEGF-induced proliferation of Human umbilical veins […] cell (HUVEC) line: HUVECs were cultured in F-12K containing 10% FBS, 18 u/mL heparin and 30 µg/mL ECGS, and HUVECs at 4-8 passages were selected for the experiment. The cells were digested with pancreatin, re-suspended in culture media (1×10^5/mL), and were added to a 96-well plate with 100 μL/well, for overnight adherent culturing. The culture was replaced with an F-12K culture solution containing 5% FBS and the cells were cultured for 24 h. […] A 0.1% FBS F-12K culture solution containing VEGF165 at a final concentration of 30 ng/ml or the vehicle (DMSO) was added and the cells were cultured under induction for 72 h. The culture solution was removed by pipetting, and 120 μL MTS assay solution was added to each well, which was incubated at 37° C. The OD490 was read. The group treated with a 5% FBS F-12K culture solution served as the negative control. VEGF-stimulated growth value was obtained by subtracting the OD of the negative control group from the OD of the VEGF165-stimulated group, and used for calculation of inhibition. A dose-effect curve was drawn using the GraphPad Prism software, and half effective concentration (EC50) was calculated.

A short description of series [2]: Cytotoxicity to HUVEC (MTS). Type of series: cell-based, Human. The settings on record: human, HUVEC cells; 72 h. How it is done: (§1) Assays for cytotoxicity: the above HUVECs were cultured in an F-12K culture medium containing 10% fetal bovine serum (FBS), 100 U/mL penicillin, 100 µg/mL streptomycin, 30 ug/mL ECGS, and 18 u/mL heparin. The HUVECs growing in the exponential phase were digested with pancreatin, and was adjust to have an appropriate level of cell density by using an F-12K complete medium containing 5% FBS, then 150 μL cells were inoculated into a 96-well plate at 3000 cells/well. […] After the cells were further cultured for 72 h, 20 μL MTS and 1 μL PMS were added to each well. 1-2 hours later, OD490 was measured, with OD650 as a reference. A dose-effect curve was drawn using the GraphPad Prism software, and half cytotoxic concentration (CC50) was calculated. The therapeutic index (TI) of the test compound on HUVECs was calculated as TI=CC50/EC50.

In another series the test system is MV-4-11 cell line. Nature of the series: Inhibitory activity on proliferation of human-derived MV-4-11 tumor cell line (MTS). The class given is cell-based. Conditions: for IC50: Homo sapiens, MV4-11, 72 h, read-out: IC50, in vitro proliferation of MV-4-11 cell line; for Maximum inhibition: MV-4-11, 72 h. An excerpt: Human-derived acute leukemia cell line MV-4-11 is a cell line having mutation(s) in Flt-3.

Series [3] deals with MV-4-11 transplanted tumor. Briefly: In vivo inhibition on MV-4-11 transplanted tumor in nude mice. Details: species or system Balb/c nude mice. The settings on record: for BW (body weight) D0 / TV (tumor volume) D0: D0, 80 mg/kg intragastric once per day; for BW (body weight) D0 / BW (body weight) D21: in g (unit assumed); for TV (tumor volume) D0 / TV (tumor volume) D21: in mm³; for BW (body weight) D21 / TV (tumor volume) D21: D21, 80 mg/kg intragastric once per day. How it is done: MV-4-11 cells were cultured to proliferate in vitro, and the cells growing in the exponential phase were harvested and re-suspended in a serum-free EMEM culture medium. The cell suspension was subcutaneously injected by a syringe into the axillary cavity of the right forelimb of male Balb/c nude mice. The animals and growth of transplanted tumors were observed regularly. […] During the administration period, the diameter of tumors and body weight (BW) of animals were measured, and the living status of animals was monitored. The experiment was finished 3 weeks after administration, and the animals were sacrificed with CO2 and subjected to autopsy.

In series [4] the target is KDR (VEGF receptor) tyrosine kinase (Homo sapiens, UniProt P35968). Briefly: In vitro assay of biochemical activity on KDR tyrosine kinase (HTRF). The settings on record: read-out: In vitro inhibitory activity on KDR, IC50. How it is done:
In vitro inhibitory activity of the compounds on KDR (VEGF receptor) tyrosine kinase was assayed by the HTRF (homogeneous time-resolved fluorescence) method. […] 10 μl SA-XL665 and a TK antibody were added to each well, which was incubated at room temperature for 1 h and read with Synergy2.

Series [5] has as its system HUVEC. Nature of the series: Cytotoxicity to HUVEC (MTS). The class given is cell-based, Human. Conditions: for TI = CC50/EC50: HUVEC; for Cytotoxicity to HUVEC compared with sunitinib: in words. How it is done: as §1
Setting [6] is: day 21, 80 mg/kg intragastric, in words.

Sequence of KDR (VEGF receptor) tyrosine kinase (P35968 20-1356): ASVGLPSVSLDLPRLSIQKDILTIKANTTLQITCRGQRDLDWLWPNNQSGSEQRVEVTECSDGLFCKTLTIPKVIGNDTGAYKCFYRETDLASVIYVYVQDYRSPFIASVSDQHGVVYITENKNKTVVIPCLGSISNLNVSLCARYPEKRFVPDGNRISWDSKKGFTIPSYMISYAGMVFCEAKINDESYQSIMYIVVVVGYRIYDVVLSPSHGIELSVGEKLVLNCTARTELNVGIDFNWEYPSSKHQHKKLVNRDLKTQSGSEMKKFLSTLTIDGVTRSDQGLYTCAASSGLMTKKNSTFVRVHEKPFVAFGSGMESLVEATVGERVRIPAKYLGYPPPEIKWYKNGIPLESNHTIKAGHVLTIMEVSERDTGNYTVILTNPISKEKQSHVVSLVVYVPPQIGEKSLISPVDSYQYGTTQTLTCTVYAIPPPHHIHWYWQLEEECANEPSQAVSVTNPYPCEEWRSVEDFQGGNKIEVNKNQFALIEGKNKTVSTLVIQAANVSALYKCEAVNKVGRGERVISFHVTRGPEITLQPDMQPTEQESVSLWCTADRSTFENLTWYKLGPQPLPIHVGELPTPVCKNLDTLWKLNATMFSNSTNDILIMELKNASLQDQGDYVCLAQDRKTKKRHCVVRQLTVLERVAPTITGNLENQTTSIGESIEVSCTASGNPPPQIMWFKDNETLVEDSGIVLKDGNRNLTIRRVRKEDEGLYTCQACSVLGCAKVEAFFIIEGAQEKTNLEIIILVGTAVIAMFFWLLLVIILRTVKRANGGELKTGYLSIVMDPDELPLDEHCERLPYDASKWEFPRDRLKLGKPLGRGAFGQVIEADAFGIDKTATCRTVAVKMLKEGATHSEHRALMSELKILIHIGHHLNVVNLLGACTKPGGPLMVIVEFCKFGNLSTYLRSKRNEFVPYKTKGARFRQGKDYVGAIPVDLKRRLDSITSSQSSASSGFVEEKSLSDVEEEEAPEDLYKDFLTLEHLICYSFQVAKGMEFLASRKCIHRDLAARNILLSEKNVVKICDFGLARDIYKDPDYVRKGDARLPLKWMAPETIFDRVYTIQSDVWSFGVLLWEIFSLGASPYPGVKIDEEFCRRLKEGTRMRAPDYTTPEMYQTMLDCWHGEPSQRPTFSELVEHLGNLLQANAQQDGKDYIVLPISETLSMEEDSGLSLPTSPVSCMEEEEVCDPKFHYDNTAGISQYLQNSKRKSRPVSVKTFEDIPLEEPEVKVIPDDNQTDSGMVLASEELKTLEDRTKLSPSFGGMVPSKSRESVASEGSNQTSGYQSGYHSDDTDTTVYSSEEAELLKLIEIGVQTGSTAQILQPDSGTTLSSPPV

As to `CCN(CC)CCNC(=O)c1c(C)[nH]c(/C=C2\C(=O)Nc3ccc(F)cc32)c1C` [Sunitinib, reference compound], the EC50 in the series with HUVEC [1] was found to be 7.73 nM. The compound also yielded a 50% cytotoxic concentration (CC50) at 72 h in series [2] of 4140 nM. Further, in the series with MV-4-11 cell line, the IC50 worked out at 3.94 nM and the Maximum inhibition amounted to 94.4%. In series [3], the “BW (body weight) D0” value came to 19.47 ± 0.33, the “TV (tumor volume) D0” value came to 242.75 ± 20.58, the “BW (body weight) D21” value was determined as 16.02 ± 0.56 and the “TV (tumor volume) D21” value worked out at 12.97 ± 2.47. The “Impact on body weight of animals” value in series [3] (setting [6]) is reported as “significantly reduces the body weight”. Moreover, the “Impact on body weight of animals” value in series [3] (day 21, 80 mg/kg intragastric, in words, listed as sunitinib) is given as “significantly reduced”.
For the compound `Cc1[nH]c(/C=C2\C(=O)Nc3ccc(F)cc32)c(C)c1NC(=O)C1CCN(C)CC1` [Compound 5], in series [4], the IC50 was found to be 141 nM. Further, the EC50 with HUVEC [1] (VEGF165 30 ng/ml) turned out to be 18.4 nM. The same compound displayed a CC50 at 72 h in series [2] greater than 20000 nM. Moreover, in the series on HUVEC [5], the “TI = CC50/EC50” value is reported as greater than 1085 and the “Cytotoxicity to HUVEC compared with sunitinib” value was “considerably lower than that of sunitinib”. In the series with MV-4-11 cell line, the IC50 stood at 1.68 nM and the Maximum inhibition was determined as 95.0%.
As to `Cc1[nH]c(/C=C2\C(=O)Nc3ccc(F)cc32)c(C)c1NC(=O)CC1CCNCC1` [Comparative compound 3, reference compound], in the series with HUVEC [1] (VEGF165 30 ng/ml), the EC50 came to 14.6 nM. In series [2], the CC50 at 72 h was 8050 nM. Also, the “TI = CC50/EC50” value in the series on HUVEC [5] is recorded as 550.
`Cc1[nH]c(/C=C2\C(=O)Nc3ccc(F)cc32)c(C)c1NC(=O)C1CCNCC1` [Compound 2]: in series [4], the IC50 is 290 nM. In addition, the EC50 in the series with HUVEC [1] (VEGF165 30 ng/ml) was 16.1 nM. For the same compound, the 50% cytotoxic concentration (CC50) at 72 h in series [2] was greater than 20000 nM. Further, in the series with HUVEC [5], the “TI = CC50/EC50” value is listed as greater than 1238 and the “Cytotoxicity to HUVEC compared with sunitinib” value is recorded as “considerably lower than that of sunitinib”. Also, in the series with MV-4-11 cell line, the IC50 was found to be 4.7 nM and the Maximum inhibition worked out at 92.6%.
For `Cc1[nH]c(/C=C2\C(=O)Nc3ccc(F)cc32)c(C)c1NC(=O)C1CCCN(C(=O)N(C)C)C1` (stereo not shown) [Compound 13], the IC50 in series [4] worked out at 77 nM. Besides, the “Cytotoxicity to HUVEC compared with sunitinib” value in the series with HUVEC [5] is on record as “considerably lower than that of sunitinib”. Further, in the series on MV-4-11 cell line, the IC50 stood at 6.41 nM and the Maximum inhibition was 90.2%.
As to `Cc1[nH]c(/C=C2\C(=O)Nc3ccc(F)cc32)c(C)c1NC(=O)C1CCCN(C(=O)N2CCCC2)C1` (stereo not shown) [Compound 14], the IC50 in series [4] was determined as 143 nM. The EC50 in the series with HUVEC [1] (VEGF165 30 ng/ml) came out at 13 nM. In series [2], this compound displayed a CC50 at 72 h greater than 20000 nM. Also, in the series on HUVEC [5], the “TI = CC50/EC50” value is listed as greater than 1534 and the “Cytotoxicity to HUVEC compared with sunitinib” value is “considerably lower than that of sunitinib”.
Consider `Cc1[nH]c(/C=C2\C(=O)Nc3ccc(F)cc32)c(C)c1NC(=O)C1CCCCN1` (stereo not shown) [Compound 9], for which the IC50 in series [4] was 89 nM. Besides, in the series with MV-4-11 cell line, the IC50 amounted to 5.34 nM and the Maximum inhibition came to 94.3%.
`Cc1[nH]c(/C=C2\C(=O)Nc3ccc(F)cc32)c(C)c1NC(=O)C1CCN(C(=O)N(C)C)CC1` [Compound 3]: the IC50 in series [4] amounted to 78 nM. Besides, in the series on HUVEC [1] (VEGF165 30 ng/ml), the EC50 is 13.7 nM. The 50% cytotoxic concentration (CC50) at 72 h in series [2] is greater than 20000 nM. Also, in the series on HUVEC [5], the “TI = CC50/EC50” value is greater than 1456 and the “Cytotoxicity to HUVEC compared with sunitinib” value is given as “considerably lower than that of sunitinib”. In the series with MV-4-11 cell line, the IC50 amounted to 10.7 nM and the Maximum inhibition amounted to 92.1%.
Turning to `Cc1[nH]c(/C=C2\C(=O)Nc3ccc(F)cc32)c(C)c1NC(=O)N1CCCC1` [Comparative compound 2, reference compound], in the series with HUVEC [1] (VEGF165 30 ng/ml), the EC50 turned out to be 12.3 nM. This compound showed a 50% cytotoxic concentration (CC50) at 72 h in series [2] of 6980 nM. Moreover, the “TI = CC50/EC50” value in the series on HUVEC [5] came to 567.
Regarding `Cc1[nH]c(/C=C2\C(=O)Nc3ccc(F)cc32)c(C)c1NC(=O)C1CCCNC1` (stereo not shown) [Compound 12], the IC50 in series [4] worked out at 142 nM. Besides, in the series on MV-4-11 cell line, the IC50 worked out at 7.87 nM and the Maximum inhibition turned out to be 93.1%.
On to `Cc1[nH]c(/C=C2\C(=O)Nc3ccc(F)cc32)c(C)c1NC(=O)[C@@H]1CCCN1` [Compound 15], for which the IC50 in series [4] came to 65 nM. Further, the EC50 in the series with HUVEC [1] (VEGF165 30 ng/ml) was 14.2 nM. Moreover, in series [2], the CC50 at 72 h is 17700 nM. Moreover, in the series with HUVEC [5], the “TI = CC50/EC50” value is given as 1247 and the “Cytotoxicity to HUVEC compared with sunitinib” value was “considerably lower than that of sunitinib”. In addition, in the series with MV-4-11 cell line, the IC50 worked out at 12.3 nM and the Maximum inhibition came to 92.5%.
Turning to `Cc1[nH]c(/C=C2\C(=O)Nc3ccc(F)cc32)c(C)c1NC(=O)[C@H]1CCCN1` [Compound 6], in series [4], the IC50 amounted to 83 nM. For the same compound, the EC50 in the series on HUVEC [1] (VEGF165 30 ng/ml) came to 13.3 nM. In series [2], this compound had a CC50 at 72 h of 17600 nM. Besides, in the series on HUVEC [5], the “TI = CC50/EC50” value was found to be 1316 and the “Cytotoxicity to HUVEC compared with sunitinib” value is reported as “considerably lower than that of sunitinib”. In the series with MV-4-11 cell line, the IC50 came to 11.6 nM and the Maximum inhibition is on record as 92.4%. Also, in series [3], the “BW (body weight) D0” value worked out at 20.42 ± 0.20, the “TV (tumor volume) D0” value stood at 238.25 ± 13.18, the “BW (body weight) D21” value was 21.38 ± 0.37 and the “TV (tumor volume) D21” value is reported as 0.00 ± 0.00. Also, in series [3] (setting [6]), the Effect on tumors result was “completely disappeared; also recorded: complete disappearance of tumors” and the “Impact on body weight of animals” value is given as “no significant impact on the body weight; also recorded: little impact on the body weight”.
Take `Cc1[nH]c(/C=C2\C(=O)Nc3ccc(F)cc32)c(C)c1NC(=O)C1CCN(C(=O)N2CCCC2)CC1` [Compound 11]: in series [4], the IC50 turned out to be 74 nM. The EC50 in the series on HUVEC [1] (VEGF165 30 ng/ml) came out at 13.9 nM. The compound also yielded a CC50 at 72 h in series [2] greater than 20000 nM. Also, in the series with HUVEC [5], the “TI = CC50/EC50” value is reported as greater than 1436 and the “Cytotoxicity to HUVEC compared with sunitinib” value is given as “considerably lower than that of sunitinib”.
The corresponding values for `Cc1[nH]c(/C=C2\C(=O)Nc3ccc(F)cc32)c(C)c1NC(=O)[C@H]1CCCN1C(=O)N(C)C` [Compound 8] are 66 nM, 11.3 nM, greater than 20000 nM, greater than 1762 and “considerably lower than that of sunitinib”.
For the compound `Cc1[nH]c(/C=C2\C(=O)Nc3ccc(F)cc32)c(C)c1NC(=O)N1CCCCC1` [Comparative compound 1, reference compound], the EC50 in the series with HUVEC [1] (VEGF165 30 ng/ml) was determined as 13.2 nM. The compound also gave a cytotoxic concentration (CC50) at 72 h in series [2] of 5690 nM. Also, the “TI = CC50/EC50” value with HUVEC [5] worked out at 430.

For the origin of these results see patent US9556154B2, “Pyrrole-substituted indolone derivative, preparation method therefor, composition comprising same and use thereof” (SHIJIAZHUANG YILING PHARMACEUTICAL CO., LTD., priority 2014, dated 2017).
